From patent US11633392B2 (priority 2016, dated 2023)
Where a name gives a salt, the structure may show the parent alone. Read-outs that look alike come from different tables or passages of the source. Marks after values point to notes of the source that are not given here.

Columns and labels:
human opioid κ receptor = target: T1, human opioid κ receptor (Homo sapiens, UniProt P41145); assay: Opioid receptor function test (Lance Ultra cAMP Kit), κ receptor; type: cell-based; conditions: for EC50: CHO cells expressing human κ receptor, cAMP, in the presence of forskolin; for κ receptor reaction rate at the maximum concentration (reference value, marked *): maximum reaction not reached, maximum concentration 10 μM, U-69593 = 100%
T1 construct: host or cells: CHO cells
T1 sequence (P41145 whole entry): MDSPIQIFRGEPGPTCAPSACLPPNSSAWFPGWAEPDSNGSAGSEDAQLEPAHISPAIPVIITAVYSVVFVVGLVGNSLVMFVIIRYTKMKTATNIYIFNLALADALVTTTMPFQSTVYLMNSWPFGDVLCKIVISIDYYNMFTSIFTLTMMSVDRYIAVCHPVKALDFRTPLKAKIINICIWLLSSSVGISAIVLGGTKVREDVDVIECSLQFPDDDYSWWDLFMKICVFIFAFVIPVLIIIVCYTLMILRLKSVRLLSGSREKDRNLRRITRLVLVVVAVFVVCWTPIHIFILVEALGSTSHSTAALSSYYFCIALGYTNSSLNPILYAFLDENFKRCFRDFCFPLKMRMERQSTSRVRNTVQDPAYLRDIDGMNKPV
Procedure: (§1) Opioid Receptor Function Test
(§2) The functional activities of the compounds provided by the present invention on the μ, δ, and κ opioid receptors were investigated.
(§3) The test was performed by using Lance Ultra cAMP Kit (PerkinElmer) according to a method predetermined for the kit. In the evaluation of the agonistic activity, CHO cells expressing each of the human opioid receptors (δ, μ, and κ, accession numbers and catalog numbers are mentioned below) and 10 μM of each test compound were reacted for 30 minutes in an assay buffer (1× HBSS, […], pH 7.4, […] (isobutylmethylxanthine), 7.5% BSA) in the presence of forskolin. Subsequently, the cAMP detection reagent included in the kit was added, and 1 hour afterward, time-resolved fluorescence measurement was performed by using the EnVision plate reader (PerkinElmer). The test compounds and the control drugs (δ: SNC80, μ: DAMGO, κ: U-69593) were evaluated in a concentration range of 10^−12 to 10^−5 M, a dose-response curve of each test compound was obtained from the fluorescence values at 665 nm, and EC50 value and the Emax value were calculated. The Emax value was calculated as a ratio of the maximum reaction of the test compound to the maximum reaction of each control drug, which is taken as 100%.
(§4) • δ: Catalog No. CT4607, Accession No. NM_000911.2 • μ: Catalog No. CT4605, Accession No. NM_000914 • κ: Catalog No. CT4606, Accession No. NM_000912 (ChanTest Corporation)

human opioid μ receptor = target: T2, human opioid μ receptor (Homo sapiens, UniProt P35372); assay: Opioid receptor function test (Lance Ultra cAMP Kit), μ receptor; type: cell-based; conditions: for EC50: read-out: μ receptor EC50 value
T2 construct: host or cells: CHO cells
T2 sequence (P35372 whole entry): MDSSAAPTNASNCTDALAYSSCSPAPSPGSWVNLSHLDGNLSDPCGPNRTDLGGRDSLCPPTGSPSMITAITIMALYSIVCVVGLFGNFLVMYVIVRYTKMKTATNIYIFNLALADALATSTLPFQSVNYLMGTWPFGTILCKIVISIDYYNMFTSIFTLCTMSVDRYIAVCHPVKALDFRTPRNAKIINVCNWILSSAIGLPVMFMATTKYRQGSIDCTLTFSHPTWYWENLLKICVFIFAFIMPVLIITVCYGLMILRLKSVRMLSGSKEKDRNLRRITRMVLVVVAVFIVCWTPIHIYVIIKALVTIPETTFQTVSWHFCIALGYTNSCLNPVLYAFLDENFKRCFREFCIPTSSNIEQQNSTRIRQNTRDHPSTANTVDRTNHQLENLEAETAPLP
Procedure: as §1, §2, §3, §4

human opioid δ receptor = target: T3, human opioid δ receptor (Homo sapiens, UniProt P41143); assay: Opioid receptor function test (Lance Ultra cAMP Kit), δ receptor; type: cell-based; conditions: for EC50: CHO cells expressing human δ receptor, cAMP, in the presence of forskolin; for Emax / δ receptor Emax: ratio to maximum reaction of control drug SNC80 taken as 100%
T3 construct: host or cells: CHO cells
T3 sequence (P41143 whole entry): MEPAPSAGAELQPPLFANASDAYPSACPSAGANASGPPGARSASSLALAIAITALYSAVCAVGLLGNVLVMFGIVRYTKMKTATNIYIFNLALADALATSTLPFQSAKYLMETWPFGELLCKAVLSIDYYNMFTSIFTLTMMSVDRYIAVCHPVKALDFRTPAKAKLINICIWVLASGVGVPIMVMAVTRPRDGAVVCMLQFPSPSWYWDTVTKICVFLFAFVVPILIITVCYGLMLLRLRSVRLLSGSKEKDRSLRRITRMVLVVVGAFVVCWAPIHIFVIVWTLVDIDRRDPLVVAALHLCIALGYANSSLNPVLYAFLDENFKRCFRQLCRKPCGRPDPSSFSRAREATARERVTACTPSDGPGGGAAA
Procedure: as §1, §2, §3, §4

[1] = tested on: olfactory bulbectomized (OBX) rat; assay: Hyperemotional reaction inhibition test using olfactory bulbectomized (OBX) rat; type: in vivo; conditions: 10 mg/kg s.c. once a day, on the day 14 of the administration period
From the text: Hyperemotional Reaction Inhibition Test Using Olfactory Bulbectomized (OBX) Rat
According to the method of Saitoh et al. (Saitoh A, Yamada M, Yamada M, Takahashi K, Yamaguchi K, Murasawa H, Nakatani A, Tatsumi Y, Hirose N, and Kamei J: Antidepressant-like effects of the delta-opioid receptor agonist SNC80 ((+)-4-[(alphaR)-alpha-[(2S,5R)-2,5-dimethyl-4-(2-propenyl)-1-piperazinyl]-(3-methoxyphenyl)methyl]-N,N-diethylbenzamide) in an olfactory bulbectomized rat model, Brain Res., 2008, 1208:160-169), OBX rats were prepared by extracting the rat olfactory bulbs, and then breeding the rats in an isolated circumstance. Hyperemotional reaction was evaluated on the day 14 after the surgical operation and before the division into groups, and 2 hours after the administration on the days 1, 4, 7, 10, and 14 of the administration period according to the hyperemotional reaction evaluation criteria prepared by Gomita et al. (Gomita et al., Behavioral pharmacological and electroencephalographical studies of 7-chloro-1-methyl-5-phenyl-1H-1,5-benzodiazepine-2,4-(3H,5H:)-dione (Clobazam), Folia Pharmacologica Japonica, 82, 267 (1983)). The drug was subcutaneously administered once a day continuously over 14 days. As a positive control drug, fluoxetine, which is a selective serotonin reuptake inhibitor (SSRI), was used. As the solvent, a 1% cyclodextrin (CD) was used.

[2] = ratio to maximum reaction of control drug U-69593 taken as 100%
[3] = CHO cells expressing human μ receptor, cAMP, in the presence of forskolin
[4] = ratio to maximum reaction of control drug DAMGO taken as 100%

Which EC50 (human opioid κ receptor) does the source give for O=C(c1ccc[n+]([O-])c1)N1C[C@H]2C[C@@]34CC[C@@H]1[C@@H]2[C@@]31CCN(CC2CC2)[C@@H]4Cc2ccc(O)cc21 [Example 4, 3-((1S,3aR,5aS,6R,11bR,11cS)-14-(cyclopropylmethyl)-10-hydroxy-2,3,3a,4,5,6,7,11c-octahydro-1H-6,11b-(epiminoethano)-1,5a-methanonaphtho[1,2-e]indole-3-carbonyl)pyridine 1-oxide] here?
Its EC50 is greater than 10 nM.

What about the Emax (human opioid κ receptor; [2]) of the same compound?
The Emax was 27%.

And the “μ receptor reaction rate at the maximum concentration (reference value, marked *)” value (human opioid μ receptor; maximum reaction not reached, maximum concentration 10 μM, DAMGO = 100%)?
Its value is 5.5* %.

What about the EC50 (human opioid δ receptor) of the same compound?
Its EC50 is less than 3 nM.

And the Emax (human opioid δ receptor)?
The Emax was 86%.

Which results are given for O=C(c1ccc(=O)[nH]c1)N1C[C@H]2C[C@@]34CC[C@@H]1[C@@H]2[C@@]31CCN(CC2CC2)[C@@H]4Cc2ccc(O)cc21 [Example 5, 5-((1S,3aR,5aS,6R,11bR,11cS)-14-(cyclopropylmethyl)-10-hydroxy-2,3,3a,4,5,6,7,11c-octahydro-1H-6,11b-(epiminoethano)-1,5a-methanonaphtho[1,2-e]indole-3-carbonyl)pyridin-2(1H)-one]?
EC50 (human opioid κ receptor): < 1 nM; Emax (human opioid κ receptor; [2]): 20%; EC50 (human opioid μ receptor; [3]): > 1 nM; Emax (human opioid μ receptor; [4]): 9.7%; EC50 (human opioid δ receptor): < 3 nM; Emax (human opioid δ receptor): 81%

Cn1cccc(C(=O)N2C[C@H]3C[C@@]45CC[C@@H]2[C@@H]3[C@@]42CCN(CC3CC3)[C@@H]5Cc3ccc(O)cc32)c1=O [Example 6, 3-((1S,3aR,5aS,6R,11bR,11cS)-14-(cyclopropylmethyl)-10-hydroxy-2,3,3a,4,5,6,7,11c-octahydro-1H-6,11b-(epiminoethano)-1,5a-methanonaphtho[1,2-e]indole-3-carbonyl)-1-methylpyridin-2(1H)-one] was tested. Which “κ receptor reaction rate at the maximum concentration (reference value, marked *)” value (“κ receptor reaction rate” for short) (human opioid κ receptor) did it give?
The value was 3.2* %.

And the EC50 (human opioid μ receptor; [3])?
Its EC50 is greater than 10 nM.

What about the Emax (human opioid μ receptor; [4]) of the same compound?
Its Emax is 7.7%.

What about the EC50 (human opioid δ receptor) of the same compound?
The EC50 was less than 3 nM.

What about the Emax (human opioid δ receptor) of the same compound?
Its Emax is 97%.

How did the EC50 (human opioid κ receptor) turn out when Cc1ccc(C(=O)N2C[C@H]3C[C@@]45CC[C@@H]2[C@@H]3[C@@]42CCN(CC3CC3)[C@@H]5Cc3ccc(O)cc32)c(=O)[nH]1 [Example 8, 3-((1S,3aR,5aS,6R,11bR,11cS)-14-(cyclopropylmethyl)-10-hydroxy-2,3,3a,4,5,6,7,11c-octahydro-1H-6,11b-(epiminoethano)-1,5a-methanonaphtho[1,2-e]indole-3-carbonyl)-6-methylpyridin-2(1H)-one] was run?
The EC50 was less than 1 nM.

What about the Emax (human opioid κ receptor; [2]) of the same compound?
The Emax was 21%.

What about the EC50 (human opioid μ receptor; [3]) of the same compound?
Its EC50 is greater than 1 nM.

And the Emax (human opioid μ receptor; [4])?
The Emax was 8.6%.

And the EC50 (human opioid δ receptor)?
The EC50 was less than 3 nM.

And the Emax (human opioid δ receptor)?
Its Emax is 70%.

Which “κ receptor reaction rate” value (human opioid κ receptor) does the source give for O=C(c1cc[nH]c(=O)c1)N1C[C@H]2C[C@@]34CC[C@@H]1[C@@H]2[C@@]31CCN(CC2CC2)[C@@H]4Cc2ccc(O)cc21 [Example 11, 4-((1S,3aR,5aS,6R,11bR,11cS)-14-(cyclopropylmethyl)-10-hydroxy-2,3,3a,4,5,6,7,11c-octahydro-1H-6,11b-(epiminoethano)-1,5a-methanonaphtho[1,2-e]indole-3-carbonyl)pyridin-2(1H)-one] here?
Its value is −2.5* %.

And the EC50 (human opioid μ receptor; [3])?
The EC50 was greater than 1 nM.

What about the Emax (human opioid μ receptor; [4]) of the same compound?
The Emax was 11%.

What about the EC50 (human opioid δ receptor) of the same compound?
The EC50 was less than 3 nM.

And the Emax (human opioid δ receptor)?
Its Emax is 76%.

Which “κ receptor reaction rate” value (human opioid κ receptor) does the source give for O=C(c1cc(=O)cc[nH]1)N1C[C@H]2C[C@@]34CC[C@@H]1[C@@H]2[C@@]31CCN(CC2CC2)[C@@H]4Cc2ccc(O)cc21 [Example 14, 2-((1S,3aR,5aS,6R,11bR,11cS)-14-(cyclopropylmethyl)-10-hydroxy-2,3,3a,4,5,6,7,11c-octahydro-1H-6,11b-(epiminoethano)-1,5a-methanonaphtho[1,2-e]indole-3-carbonyl)pyridin-4(1H)-one] here?
Its value is −6.7* %.

And the EC50 (human opioid μ receptor; [3])?
The EC50 was greater than 1 nM.

What about the Emax (human opioid μ receptor; [4]) of the same compound?
The Emax was 8.1%.

And the EC50 (human opioid δ receptor)?
The EC50 was less than 3 nM.

What about the Emax (human opioid δ receptor) of the same compound?
The Emax was 95%.

Which results are given for O=C(c1cc(=O)cco1)N1C[C@H]2C[C@@]34CC[C@@H]1[C@@H]2[C@@]31CCN(CC2CC2)[C@@H]4Cc2ccc(O)cc21 [Example 19, 2-((1S,3aR,5aS,6R,11bR,11cS)-14-(cyclopropylmethyl)-10-hydroxy-2,3,3a,4,5,6,7,11c-octahydro-1H-6,11b-(epiminoethano)-1,5a-methanonaphtho[1,2-e]indole-3-carbonyl)-4H-pyran-4-one]?
κ receptor reaction rate at the maximum concentration (reference value, marked *) (human opioid κ receptor): 0.6* %; EC50 (human opioid μ receptor; [3]): > 1 nM; Emax (human opioid μ receptor; [4]): 19%; EC50 (human opioid δ receptor): < 3 nM; Emax (human opioid δ receptor): 91%

What does the source list for CCn1cc(C(=O)N2C[C@H]3C[C@@]45CC[C@@H]2[C@@H]3[C@@]42CCN(CC3CC3)[C@@H]5Cc3ccc(O)cc32)ccc1=O [Example 28, 5-((1S,3aR,5aS,6R,11bR,11cS)-14-(cyclopropylmethyl)-10-hydroxy-2,3,3a,4,5,6,7,11c-octahydro-1H-6,11b-(epiminoethano)-1,5a-methanonaphtho[1,2-e]indole-3-carbonyl)-1-ethylpyridin-2(1H)-one]?
EC50 (human opioid κ receptor): < 1 nM; Emax (human opioid κ receptor; [2]): 18%; EC50 (human opioid μ receptor; [3]): > 1 nM; Emax (human opioid μ receptor; [4]): 16%; EC50 (human opioid δ receptor): < 3 nM; Emax (human opioid δ receptor): 92%

Cn1cccc(C(=O)N2C[C@H]3C[C@@]45CC[C@@H]2[C@@H]3[C@@]42CCN(CC3CC3)[C@@H]5Cc3ccc(O)cc32)c1=O [Example 31, 3-((1S,3aR,5aS,6R,11bR,11cS)-14-(cyclopropylmethyl)-10-hydroxy-2,3,3a,4,5,6,7,11c-octahydro-1H-6,11b-(epiminoethano)-1,5a-methanonaphtho[1,2-e]indole-3-carbonyl)-1-methylpyridin-2(1H)-one hydrochloride] was tested. Which “μ receptor Emax” value (human opioid μ receptor) did it give?
The value was 7.7%.

What about the EC50 (human opioid μ receptor) of the same compound?
The EC50 was greater than 10 nM.

And the “δ receptor Emax” value (human opioid δ receptor)?
The value was 97%.

With Cc1ccc(C(=O)N2C[C@H]3C[C@@]45CC[C@@H]2[C@@H]3[C@@]42CCN(CC3CC3)[C@@H]5Cc3ccc(O)cc32)c(=O)[nH]1 [Example 32, 3-((1S,3aR,5aS,6R,11bR,11cS)-14-(cyclopropylmethyl)-10-hydroxy-2,3,3a,4,5,6,7,11c-octahydro-1H-6,11b-(epiminoethano)-1,5a-methanonaphtho[1,2-e]indole-3-carbonyl)-6-methylpyridin-2(1H)-one hydrochloride] as the compound, how does the “κ receptor Emax” value (human opioid κ receptor; [2]) read?
Its value is 21%.

What about the “μ receptor Emax” value (human opioid μ receptor; [4]) of the same compound?
Its value is 8.6%.

What about the “δ receptor Emax” value (human opioid δ receptor) of the same compound?
Its value is 70%.

With CNCCC(Oc1ccc(C(F)(F)F)cc1)c1ccccc1 (centres unmarked) [fluoxetine, reference compound] as the compound, how does the “hyperemotional reactions of the OBX rats compared with the solvent administration group” value [1] read?
The value was “significantly reduced”.
